# Measurements: patent US20180213776A1, “COMPOSITIONS FOR C[…] POPULATIONS” (PRESIDENT AND FELLOWS OF HARVARD COLLEGE, priority 2015, published 2018)
# Columns and labels:
# An. gambiae females [1] = assay: Mating success (insemination) after topical DBH application; type: in vivo
# Method: (§1) An. gambiae mosquitoes of the G3 strain were employed in all experiments. All mosquitoes were maintained under standard insectary conditions (26-28° C., 65-80% relative humidity, 12:12 hours light/dark photoperiod).
# (§2) The DBH compound methoxyfenozide (0.5 μl of a 0.4% solution re-suspended in acetone) (Sigma-Aldrich, 32507) was topically applied to the thorax of An. gambiae females anesthetized on ice using a micropipette. Mating success, egg development after blood feeding and longevity were determined relative to acetone-treated controls. Females were 2 days old at the time of application, and each experiment was replicated twice. The effects of methoxyfenozide on mating success were determined by adding DBH-treated and control virgin females into separate cages containing a large excess of 5 day-old virgin males, 24 hours following topical application. 48 hours later successfully inseminated (mated) females from each cage were determined via dissection and the presence of sperm in the spermatheca. […] Egg development was evaluated 3 days later upon dissection of the ovaries.
# (§3) A mating effect experiment was comprised of an unexposed and exposed group with cases defined as those who mated. The efficacy of the mating effect was defined as the prevented fraction in exposed, i.e. one minus the risk ratio. […]
# An. gambiae females [2] = assay: Egg development after blood feeding; type: in vivo
# Method: as §1, §2, §3
# An. gambiae females [3] = assay: Longevity / mortality after DBH exposure; type: in vivo
# Method: as §1
# For the longevity experiments, DBH-treated and control females were maintained in cups and supplied ad libitum with a 10% sucrose solution and water. Mortality rates after DBH/acetone exposure were recorded daily for 2 weeks, encompassing the period needed for mosquitoes to become infectious.
# Day post-exposure was stratified to account for the time varying nature in the mortality effect experiment. For each day, there is the number of exposed and unexposed mosquitoes surviving to that day (risk set), and the number in each group surviving through that day. Using the risk set in day i, the relative risk of surviving through day i (RRi) is estimated, comparing the exposed to the unexposed. The efficacy for the mortality was defined as one minus RRi for day i. The confidence interval for the relative risk of survival was estimated using a Normal approximation of ln(RRi), with standard error:
# (§4) At the highest dose (2 μg), only 7.5% of females who fully engorged on an infectious blood meal were positive for oocysts, corresponding to an 87% reduction in infection prevalence relative to controls.
# An. gambiae females [4] = assay: Dose dependency of egg laying (oviposition); type: in vivo; details: for individuals laying eggs: 24 hours prior to blood feeding, control 100%
# Method: as §1
# Mated females were tested for their ability to develop and lay eggs when exposed to DBH 24 hours prior to blood feeding at 5 different doses ranging in a 2-fold dilution series from about 2 μg to about 0.125 μg per mosquito, respectively. One hundred percent (100%) of the control females oviposited after a blood meal. […] An ED50 dose of […] (0.08-0.13 95% CI) was determined from the dose-response curve (slope of 2.32, R=0.993). Moreover, even in cases where females oviposited, a significant reduction in the number of eggs laid was detected at the three highest doses (e.g., 2 μg; 1 μg; and 0.5 μg), with a median egg number of zero compared to a median of 91.5 eggs in the control group.
# [5] = system: primary ovarian follicles; assay: TUNEL assay of ovaries (apoptosis of ovarian follicles); type: in vivo, An. gambiae; details: 24 hours after DBH exposure
# Excerpt: Induction of autogenous egg development after exposure was not observed.
# [6] = system: P. falciparum (NF54 strain); assay: P. falciparum infection (oocysts) after infectious blood meal; type: in vivo
# Method: as §4
# Aedes species = assay: Preliminary data on eggs of Aedes species; type: in vivo
# mammals = details: cited from earlier work
substance,measurement,setting,value
methoxyfenozide [DBH],efficacy: reduced mating success (reduction),"An. gambiae females [1]; prevented fraction in exposed, 68% CI 58-73%",67%
same,females successfully inseminated by males (sperm in the spermatheca),"An. gambiae females [1]; treated once, 0.5 μl of 0.4% solution topically to thorax, controls 86%",29%
same,egg development after blood feeding,"An. gambiae females [2]; 0.5 μl of 0.4% solution topical, blood fed 24 hours after application, ovaries dissected 3 days later",completely abolished
same,efficacy: impaired egg development (reduction),"An. gambiae females [2]; prevented fraction in exposed, add-one smoothing, 68% CI 94-99%",98%
same,median survival time,"An. gambiae females [3]; 0.125 μg, control 19 days",16 days
same,median survival time,"An. gambiae females [3]; 2 μg, control 19 days",11 days
same,mortality over 14 days,"An. gambiae females [3]; 0.5 μl of 0.4% solution topical, controls 10%",~100%
same,median survival time,"An. gambiae females [3]; 0.5 μl of 0.4% solution topical, recorded 2 weeks",8 days
same,efficacy: maximum increase in daily mortality rate,"An. gambiae females [3]; day 8 post exposure, 68% CI 37-72%",60%
same,reduction in median survival time compared to controls,An. gambiae females [3]; highest dose (2 μg),eight
same,females with no eggs developed in the ovaries despite fully engorging on blood,"An. gambiae females [4]; all DBH-exposed groups, upon dissection",98.7%
same,individuals laying eggs,An. gambiae females [4]; highest dose 2 μg per mosquito,10.9%
same,induction of autogenous egg development after exposure,An. gambiae females [4]; in vivo,not observed
same,individuals laying eggs,An. gambiae females [4]; median dose 0.5 μg per mosquito,47.4%
same,median egg number laid,"An. gambiae females [4]; three highest doses (2 μg; 1 μg; 0.5 μg), control median 91.5 eggs",zero
same,TUNEL: apoptosis of primary ovarian follicles,[5],"extensive fragmentation of chromatin, indicative of apoptosis"
same,reduction in infection prevalence relative to controls,[6]; 2 μg,87%
same,females positive for oocysts,"[6]; 2 μg, 7 days post-infectious blood meal, control 58.5%",7.5%
same,intensity of infection in females that developed oocysts,[6]; in vivo,not significantly affected
same,oocyst prevalence,"[6]; low dose 0.125 μg, control 58.5%",50.7%
same,females failed to develop an infection,[6]; median dose 0.5 μg,25.8%
same,reduction in prevalence,[6]; median dose 0.5 μg,56%
same,effect on eggs,Aedes species,deformed eggs
same,carcinogenicity,mammals,non-carcinogenic
same,toxicity to mammals,mammals,not toxic to mammals unless used at extremely high concentrations
